Source: patent US20230391756A1, “NEW COMPOUND” (JANSSEN PHARMACEUTICA NV, priority 2020, published 2023)

Key:
TNF = experiment: PBMC assay: TNF cytokine level after LPS stimulation; format: cell-based; conditions: human PBMCs, 100 ng/ml LPS for 6 hrs, MSD, read-out: TNFα EC50
Outline: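 Thawed healthy-donor human PBMCs, 7.5×10^4 cells per well, preincubated 30 min at 37° C, then stimulated with 100 ng/ml LPS (final) for 6 hrs. Supernatant TNF (and IL-1β) measured by MSD immunoassay.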

[1] = tested on: NLRP3 inflammasome pathway (IL-1β); experiment: PBMC assay: IL-1β release after LPS stimulation; format: cell-based; conditions: human PBMCs, 100 ng/ml LPS for 6 hrs, MSD

melting point [°C]	EC50 (TNF) [µM]	IC50 [1] [µM]	SMILES
216.4	> 20	0.29	O=C(Cc1nn(C2CC2)c2cc(C(F)(F)F)ccc2c1=O)Nc1ccc2nccn2n1 [F-61]
222.5	> 20	> 20	CC(C)n1nc(CC(=O)Nc2nc3cc(F)ccc3n2C)c(=O)c2ccc(C(F)(F)F)cc21 [F-98]
206.8	> 20	0.814	CC(C)n1nc(CC(=O)Nc2ccc3ncnn3c2)c(=O)c2ccc(C(F)(F)F)cc21 [F-24]
233	> 20	3.65	CC(C)n1nc(CC(=O)Nc2cc(Cl)c(=O)n(C(F)F)c2)c(=O)c2ccc(C(F)(F)F)cc21 [F-47]
221.8	> 20	> 20	CC(C)n1nc(CC(=O)Nc2nc3ccc(F)cc3n2C)c(=O)c2ccc(C(F)(F)F)cc21 [F-99]
212.3	> 20	5.35	CC(C)n1nc(CC(=O)Nc2ccn3cnnc3c2)c(=O)c2ccc(C(F)(F)F)cc21 [F-17]
271	> 20	3.26	CCn1nc(CC(=O)Nc2ncc3ncn(C)c3n2)c(=O)c2ccc(C(F)(F)F)cc21 [F-48]
206.5	> 20	0.49	CCn1nc(CC(=O)Nc2ccc3nncn3n2)c(=O)c2ccc(Cl)cc21 [F-34]
